{"source": "patent US20250049810A1", "about": "“METHODS OF TREATING A RAS PROTEIN-RELATED DISEASE OR DISORDER” (Revolution Medicines, Inc., priority 2023, published 2025)", "key": {"[1]": {"test_system": "human cancer cell lines harboring the KRAS^G12C mutation", "assay": "Growth suppression and apoptosis in KRAS G12C cancer cell lines", "format": "cell-based", "conditions": "multiple human cancer cell lines harboring KRAS^G12C"}, "KRAS^G12C CRC": {"test_system": "KRAS^G12C CRC", "assay": "Phase 1/1b study: tumor response per RECIST 1.1 in KRAS G12C CRC", "format": "in vivo, human", "protocol": "(§1) This Example describes the study design of a Phase 1/1b study of Compound A in patients with advanced KRAS^G12C solid tumors with the first patient dosed in September 2022. There are two components in this study: Part 1—Dose Escalation and Part 2—Dose Expansion (FIG. 1). In Part 1—Dose Escalation, an assessment of safety and tolerability are conducted, and the candidate recommended Phase 2 dose and schedule (RP2DS) are determined for further testing in the Dose Expansion Part. Part 2 of the study evaluates the safety and antitumor effects of the candidate RP2DS in KRAS^G12C-mutant solid tumors.\n(§2) Subjects are assessed for response using Response Evaluation Criteria in Solid Tumors (version 1.1) (RECIST [v1.1]). All subjects with previous or current, known or suspected brain metastases must have a magnetic resonance imaging (MRI) of the brain (unless contraindicated) performed within 28 days prior to the first dose of Compound A (C1D1). Disease response for clinical management of subjects were assessed per RECIST (v1.1).\n(§3) Patients with previously treated, advanced […] solid tumors received escalating doses of Compound A. Doses included 50 mg, 100 mg, and 200 mg once daily (QD) and 100 mg, 200 mg, 300 mg, and 400 mg twice daily (BID). Each cycle had 21 days, with efficacy assessed every 6 weeks. Additional patients were enrolled to backfill cohorts at dose levels that cleared dose-limiting toxicity evaluation to further characterize PK, safety, and anti-tumor activity of Compound A as described in Example 1."}, "[2]": {"assay": "Phase 1/1b study: Compound A pharmacokinetics in patients", "format": "in vivo, human", "conditions": "for Tmax / half-life: human, oral, plasma; for Tmax: read-out: median Tmax", "protocol": "as §1\nWhole-blood samples were collected from all subjects to measure Compound A concentrations, circulating tumor deoxyribonucleic acid (ctDNA) and other biomarkers. Samples for pharmacodynamic assays collected in Cycle 1 and beyond. Paired pretreatment and on treatment fresh tumor samples collected from any subject if consent is obtained and at the discretion of the treating physician. Optional collection of pre-study treatment fresh biopsy should be performed prior to C1D1 dosing. An optional on-study treatment biopsy may be obtained with subject consent and at the discretion of the treating physician. The primary purpose of the optional on-study treatment biopsies is to assess pharmacodynamic markers and previously acquired pre-study treatment markers of resistance. Biopsy assessment with study intervention treatment over time may also help with better understanding of the shift in mutational profile with study treatment, as well as cellular clonality changes over time. Where tumor tissue allows, predictive biomarkers of response are explored.\nInitially Compound A will be administered orally QD for a treatment cycle of 21 days. BID dosing be administered to subjects who are enrolled into Dose level 3 and higher dose levels during escalation as well. For subjects on BID dosing, the second dose of Compound A is administered approximately 10 to 12 hours after the first dose is administered.\nas §3"}, "[3]": {"assay": "Phase 1/1b study: safety, treatment-related adverse events", "format": "in vivo, human", "protocol": "as §1\nSafety assessments and procedures were performed. Real-time safety monitoring is performed to ensure that the protocol-specified dose modification guidelines are followed. In addition, C1 safety and available PK and pharmacodynamic data reviewed and evaluated at each Compound A dose level/schedule to determine whether enrollment into the next higher dose-level cohort could proceed. A modified schedule evaluated in which Compound A may be administered more or less frequently than once daily (QD). The totality of the data from dose escalation cohorts is reviewed and one or more candidate RP2DS for expansion in Part 2 can be recommended.\nas §3"}, "KRAS^G12C NSCLC": {"test_system": "KRAS^G12C NSCLC", "assay": "Phase 1/1b study: tumor response per RECIST 1.1 in KRAS G12C NSCLC", "format": "in vivo, human", "conditions": "for patients who responded (response rate): all doses", "protocol": "as §1, §2, §3"}, "[4]": {"test_system": "xenograft models of human KRAS^G12C cancers", "assay": "Xenograft / preclinical models of KRAS G12C cancers", "format": "in vivo"}, "[5]": {"conditions": "FIG. 3, CRC naive to KRAS^G12C(OFF) inhibitor, RECIST 1.1"}, "[6]": {"conditions": "47 patients, all doses, as of Aug. 8, 2023"}}, "note": "Like-named read-outs stand apart in the source and are kept apart here."}
{"smiles": "CCn1c(-c2cccnc2[C@H](C)OC)c2c3cc(ccc31)N1CCO[C@@H](C[C@H](NC(=O)[C@H](C(C)C)N(C)C(=O)C3(F)CCN(C(=O)C#CC(C)(C)N(C)C)CC3)C(=O)N3CCC[C@H](N3)C(=O)OCC(C)(C)C2)C1", "note": "(atropisomer, axis not shown) [Compound A]", "values": [{"measurement": "effect on cancer cell lines in vitro", "setting": "[1]", "result": "growth suppression and apoptosis"}, {"measurement": "disease control rate", "setting": "KRAS^G12C CRC; CRC, not previously treated with G12C(OFF) inhibitor", "result": 80, "unit": "%"}, {"measurement": "patients with partial response", "setting": "KRAS^G12C CRC; CRC, not previously treated with G12C(OFF) inhibitor, 8 of 20, as of Oct. 5, 2023", "result": 40, "unit": "%"}, {"measurement": "confirmed PR, number of patients", "setting": "KRAS^G12C CRC; [5]", "result": 5}, {"measurement": "unconfirmed PR, number of patients", "setting": "KRAS^G12C CRC; [5]", "result": 3}, {"measurement": "Tmax", "setting": "[2]; 13 subjects, data as of May 15, 2023", "result": 1, "unit": "h"}, {"measurement": "half-life", "setting": "[2]; 13 subjects, data as of May 15, 2023, read-out: terminal half-life in the plasma", "result": "< 3", "unit": "h"}, {"measurement": "Tmax", "setting": "[2]; patients, data as of Aug. 8, 2023", "result": 1, "unit": "h"}, {"measurement": "half-life", "setting": "[2]; patients, data as of Aug. 8, 2023, read-out: terminal half-life (converted)", "result": 1.8, "unit": "h"}, {"measurement": "exposure", "setting": "[2]; patients, escalating oral doses 50 mg QD to 400 mg BID", "result": "dose-dependent exposure"}, {"measurement": "AUC", "setting": "[2]; range of 50-200 mg", "result": "increased in a dose-dependent manner"}, {"measurement": "Cmax", "setting": "[2]; range of 50-200 mg", "result": "increased in a dose-dependent manner"}, {"measurement": "mean accumulation ratio (C1D15 AUC vs C1D1 AUC)", "setting": "[2]; repeated daily dosing", "result": "less than 2 ×"}, {"measurement": "Gr3 TRAE QTc prolongation, number of patients", "setting": "[3]; 200 mg BID", "result": 1, "unit": "patients"}, {"measurement": "Gr3 TRAE QTc prolongation, number of patients", "setting": "[3]; 300 mg", "result": 1, "unit": "patients"}, {"measurement": "Gr3 TRAE QTc prolongation, number of patients", "setting": "[3]; 400 mg BID", "result": 3, "unit": "patients"}, {"measurement": "TRAE QTc prolongation, patients", "setting": "[3]; [6]", "result": 21, "unit": "%"}, {"measurement": "TRAE diarrhea, patients", "setting": "[3]; [6]", "result": 30, "unit": "%"}, {"measurement": "TRAE fatigue, patients", "setting": "[3]; [6]", "result": 15, "unit": "%"}, {"measurement": "TRAE nausea, patients", "setting": "[3]; [6]", "result": 34, "unit": "%"}, {"measurement": "TRAE vomiting, patients", "setting": "[3]; [6]", "result": 15, "unit": "%"}, {"measurement": "Gr3 TRAE QTc prolongation, number of patients", "setting": "[3]; all doses", "result": 5, "unit": "patients"}, {"measurement": "treatment-emergent AE that led to treatment discontinuation", "setting": "[3]; all doses", "result": "No patients"}, {"measurement": "treatment-related Gr4 or 5 AE", "setting": "[3]; all doses", "result": "No patients"}, {"measurement": "treatment-related ≥Gr3 hepatotoxicity", "setting": "[3]; all doses", "result": "No treatment-related ≥Gr3 hepatotoxicity was observed"}, {"measurement": "patients with average QTc interval >501 ms", "setting": "[3]; out of the 5 patients with Gr3 QTc prolongation", "result": "one"}, {"measurement": "confirmed PR, number of patients", "setting": "KRAS^G12C NSCLC; FIG. 2, NSCLC, RECIST 1.1", "result": 5}, {"measurement": "unconfirmed PR, number of patients", "setting": "KRAS^G12C NSCLC; FIG. 2, NSCLC, RECIST 1.1", "result": 3}, {"measurement": "disease control rate", "setting": "KRAS^G12C NSCLC; NSCLC, both sets of patients (G12C(OFF) inhibitor naive and pretreated)", "result": 100, "unit": "%"}, {"measurement": "patients who responded (response rate)", "setting": "KRAS^G12C NSCLC; NSCLC, not previously treated with G12C(OFF) inhibitor, three of seven, as of Oct. 5, 2023", "result": 43, "unit": "%"}, {"measurement": "patients who responded (response rate)", "setting": "KRAS^G12C NSCLC; NSCLC, previously treated with G12C(OFF) inhibitor, 5 of 10, as of Oct. 5, 2023", "result": 50, "unit": "%"}, {"measurement": "response in preclinical models compared to adagrasib", "setting": "[4]; compared to the KRAS^G12C(OFF) inhibitor adagrasib", "result": "superior response rate, deeper regressions and longer duration of response"}, {"measurement": "anti-tumor activity in vivo", "setting": "[4]; multiple xenograft models of human KRAS^G12C cancers", "result": "dose-dependent and durable tumor regressions"}]}
